Consider ten molecules from ChEMBL document CHEMBL4152309, “N-phenylsulfonyl-3,5-bis(arylidene)-4-piperidone derivatives as activation NF-κB inhibitors in hepatic carcinoma cell lines” (Eur J Med Chem, 2018).

Broadly, the pIC50 is the IC50 on a negative log10 scale, so that one unit is a factor of ten.

pIC50: −log10 of the molar value.

The first data set relates to SMMC-7721. The data set is described as follows: Cytotoxicity against human SMMC7721 cells assessed as reduction in cell viability after 24 hrs by MTT assay. It counts as functional, cell-based. The settings on record: SMMC-7721, 24 h.
As for `CC(=O)Nc1ccc(S(=O)(=O)N2C/C(=C\c3ccc(C#N)cc3)C(=O)/C(=C/c3ccc(C#N)cc3)C2)cc1`, the negative logarithm of the IC50 (pIC50) was 5.15.
As for `CC(=O)Nc1ccc(S(=O)(=O)N2C/C(=C\c3ccccc3F)C(=O)/C(=C/c3ccccc3F)C2)cc1`, the pIC50 is 5.13.
The same measure, in the same setting: as for `COc1cc(/C=C2\CN(S(=O)(=O)c3ccc(F)cc3)C/C(=C\c3ccccc3F)C2=O)cc(OC)c1`, the figure is 5.16.
With `COc1cc(/C=C2\CN(S(=O)(=O)c3ccc(NC(C)=O)cc3)C/C(=C\c3cc(OC)cc(OC)c3)C2=O)cc(OC)c1`, the pIC50 is 5.16.
Turning to `CC(=O)Nc1ccc(S(=O)(=O)N2C/C(=C\c3ccc(C#N)cc3)C(=O)/C(=C/c3ccccc3F)C2)cc1`, the pIC50 was 5.50.
The same measure, in the same setting: as for `O=C1/C(=C/c2cccc([N+](=O)[O-])c2)CN(S(=O)(=O)c2ccc(F)cc2)C/C1=C\c1cccc([N+](=O)[O-])c1`, the figure is 5.40; as for `COc1cc(/C=C2\CN(S(=O)(=O)c3ccc(F)cc3)C/C(=C\c3cc(OC)c(OC)c(OC)c3)C2=O)cc(OC)c1OC`, 5.42; as for `COc1cc(/C=C2\CN(S(=O)(=O)c3ccc(NC(C)=O)cc3)C/C(=C\c3ccccc3F)C2=O)cc(OC)c1OC`, 5.41.
On the same count and under the same terms, then `COc1cc(/C=C2\CN(S(=O)(=O)c3ccc(NC(C)=O)cc3)C/C(=C\c3cccc([N+](=O)[O-])c3)C2=O)cc(OC)c1OC`, with 5.71.
Regarding `COc1cc(/C=C2\CN(S(=O)(=O)c3ccc(NC(C)=O)cc3)C/C(=C\c3cc(OC)c(OC)c(OC)c3)C2=O)cc(OC)c1`, the pIC50 is 5.38.

The subject of another data set is HepG2. The data set is described as follows: Cytotoxicity against human HepG2 cells assessed as reduction in cell viability after 24 hrs by MTT assay. It counts as functional, cell-based. The settings on record: HepG2, 24 h. Background: Tetrazolium dyes change colour on reduction, which living cells bring about.
For `CC(=O)Nc1ccc(S(=O)(=O)N2C/C(=C\c3ccc(C#N)cc3)C(=O)/C(=C/c3ccc(C#N)cc3)C2)cc1`, the negative-log IC50 (pIC50) was 5.31.
Consider `CC(=O)Nc1ccc(S(=O)(=O)N2C/C(=C\c3ccccc3F)C(=O)/C(=C/c3ccccc3F)C2)cc1`, for which the pIC50 was 5.23.
On to `COc1cc(/C=C2\CN(S(=O)(=O)c3ccc(F)cc3)C/C(=C\c3ccccc3F)C2=O)cc(OC)c1`, for which the pIC50 was 5.03.
As for `COc1cc(/C=C2\CN(S(=O)(=O)c3ccc(NC(C)=O)cc3)C/C(=C\c3cc(OC)cc(OC)c3)C2=O)cc(OC)c1`, the pIC50 was 5.12.
In the case of `CC(=O)Nc1ccc(S(=O)(=O)N2C/C(=C\c3ccc(C#N)cc3)C(=O)/C(=C/c3ccccc3F)C2)cc1`, the negative logarithm of the IC50 (pIC50) is 5.30.
For the molecule `O=C1/C(=C/c2cccc([N+](=O)[O-])c2)CN(S(=O)(=O)c2ccc(F)cc2)C/C1=C\c1cccc([N+](=O)[O-])c1`, the pIC50 is 5.06.
On to `COc1cc(/C=C2\CN(S(=O)(=O)c3ccc(F)cc3)C/C(=C\c3cc(OC)c(OC)c(OC)c3)C2=O)cc(OC)c1OC`, for which the pIC50 was 5.38.
Take `COc1cc(/C=C2\CN(S(=O)(=O)c3ccc(NC(C)=O)cc3)C/C(=C\c3ccccc3F)C2=O)cc(OC)c1OC`: the negative-log IC50 (pIC50) is 5.32.
Consider `COc1cc(/C=C2\CN(S(=O)(=O)c3ccc(NC(C)=O)cc3)C/C(=C\c3cccc([N+](=O)[O-])c3)C2=O)cc(OC)c1OC`, for which the negative-log IC50 (pIC50) was 5.48.
Consider `COc1cc(/C=C2\CN(S(=O)(=O)c3ccc(NC(C)=O)cc3)C/C(=C\c3cc(OC)c(OC)c(OC)c3)C2=O)cc(OC)c1`, for which the negative-log IC50 (pIC50) is 5.38.

System in the next data set: not listed separately
The data set is described as follows: Cytotoxicity against human HHL5 cells assessed as reduction in cell viability after 24 hrs by MTT assay. It counts as cell-based. The settings on record: HHL-5, 24 h.
Regarding `CC(=O)Nc1ccc(S(=O)(=O)N2C/C(=C\c3ccc(C#N)cc3)C(=O)/C(=C/c3ccc(C#N)cc3)C2)cc1`, the pIC50 is 4.92.
In the case of `CC(=O)Nc1ccc(S(=O)(=O)N2C/C(=C\c3ccccc3F)C(=O)/C(=C/c3ccccc3F)C2)cc1`, the negative-log IC50 (pIC50) is 4.88.
On to `COc1cc(/C=C2\CN(S(=O)(=O)c3ccc(F)cc3)C/C(=C\c3ccccc3F)C2=O)cc(OC)c1`, for which the pIC50 was 4.80.
For the molecule `COc1cc(/C=C2\CN(S(=O)(=O)c3ccc(NC(C)=O)cc3)C/C(=C\c3cc(OC)cc(OC)c3)C2=O)cc(OC)c1`, the negative-log IC50 (pIC50) was 4.74.
Take `CC(=O)Nc1ccc(S(=O)(=O)N2C/C(=C\c3ccc(C#N)cc3)C(=O)/C(=C/c3ccccc3F)C2)cc1`: the negative logarithm of the IC50 (pIC50) is 4.95.
Consider `O=C1/C(=C/c2cccc([N+](=O)[O-])c2)CN(S(=O)(=O)c2ccc(F)cc2)C/C1=C\c1cccc([N+](=O)[O-])c1`, for which the pIC50 was 4.95.
Turning to `COc1cc(/C=C2\CN(S(=O)(=O)c3ccc(F)cc3)C/C(=C\c3cc(OC)c(OC)c(OC)c3)C2=O)cc(OC)c1OC`, the pIC50 is 4.96.
Take `COc1cc(/C=C2\CN(S(=O)(=O)c3ccc(NC(C)=O)cc3)C/C(=C\c3ccccc3F)C2=O)cc(OC)c1OC`: the pIC50 is 4.91.
As to `COc1cc(/C=C2\CN(S(=O)(=O)c3ccc(NC(C)=O)cc3)C/C(=C\c3cccc([N+](=O)[O-])c3)C2=O)cc(OC)c1OC`, the pIC50 was 4.85.
In the case of `COc1cc(/C=C2\CN(S(=O)(=O)c3ccc(NC(C)=O)cc3)C/C(=C\c3cc(OC)c(OC)c(OC)c3)C2=O)cc(OC)c1`, the pIC50 was 4.87.

A further data set has as its system QGY-7703. The data set is described as follows: Cytotoxicity against human QGY7703 cells assessed as reduction in cell viability after 24 hrs by MTT assay. The conditions noted are these: QGY-7703, 24 h. It counts as functional, cell-based.
Take `CC(=O)Nc1ccc(S(=O)(=O)N2C/C(=C\c3ccc(C#N)cc3)C(=O)/C(=C/c3ccc(C#N)cc3)C2)cc1`: the negative logarithm of the IC50 (pIC50) is 5.48.
For `CC(=O)Nc1ccc(S(=O)(=O)N2C/C(=C\c3ccccc3F)C(=O)/C(=C/c3ccccc3F)C2)cc1`, the negative logarithm of the IC50 (pIC50) was 5.26.
For the molecule `COc1cc(/C=C2\CN(S(=O)(=O)c3ccc(F)cc3)C/C(=C\c3ccccc3F)C2=O)cc(OC)c1`, the negative logarithm of the IC50 (pIC50) is 4.85.
On to `COc1cc(/C=C2\CN(S(=O)(=O)c3ccc(NC(C)=O)cc3)C/C(=C\c3cc(OC)cc(OC)c3)C2=O)cc(OC)c1`, for which the pIC50 was 4.95.
As for `CC(=O)Nc1ccc(S(=O)(=O)N2C/C(=C\c3ccc(C#N)cc3)C(=O)/C(=C/c3ccccc3F)C2)cc1`, the pIC50 is 5.69.
On to `O=C1/C(=C/c2cccc([N+](=O)[O-])c2)CN(S(=O)(=O)c2ccc(F)cc2)C/C1=C\c1cccc([N+](=O)[O-])c1`, for which the negative logarithm of the IC50 (pIC50) is 4.92.
`COc1cc(/C=C2\CN(S(=O)(=O)c3ccc(F)cc3)C/C(=C\c3cc(OC)c(OC)c(OC)c3)C2=O)cc(OC)c1OC`: the negative logarithm of the IC50 (pIC50) is 5.65.
As for `COc1cc(/C=C2\CN(S(=O)(=O)c3ccc(NC(C)=O)cc3)C/C(=C\c3ccccc3F)C2=O)cc(OC)c1OC`, the negative-log IC50 (pIC50) was 5.57.
For `COc1cc(/C=C2\CN(S(=O)(=O)c3ccc(NC(C)=O)cc3)C/C(=C\c3cccc([N+](=O)[O-])c3)C2=O)cc(OC)c1OC`, the pIC50 is 5.59.
Turning to `COc1cc(/C=C2\CN(S(=O)(=O)c3ccc(NC(C)=O)cc3)C/C(=C\c3cc(OC)c(OC)c(OC)c3)C2=O)cc(OC)c1`, the negative logarithm of the IC50 (pIC50) was 5.69.

Another data set relates to L02. Kind of data set: Cytotoxicity against human LO2 cells assessed as reduction in cell viability after 24 hrs by MTT assay. It counts as cell-based. The settings on record: L02, 24 h.
`CC(=O)Nc1ccc(S(=O)(=O)N2C/C(=C\c3ccc(C#N)cc3)C(=O)/C(=C/c3ccc(C#N)cc3)C2)cc1`: the pIC50 is 4.85.
Turning to `CC(=O)Nc1ccc(S(=O)(=O)N2C/C(=C\c3ccccc3F)C(=O)/C(=C/c3ccccc3F)C2)cc1`, the negative logarithm of the IC50 (pIC50) was 4.94.
Take `COc1cc(/C=C2\CN(S(=O)(=O)c3ccc(F)cc3)C/C(=C\c3ccccc3F)C2=O)cc(OC)c1`: the pIC50 was 4.73.
Still for that read-out and setting: then `COc1cc(/C=C2\CN(S(=O)(=O)c3ccc(NC(C)=O)cc3)C/C(=C\c3cc(OC)cc(OC)c3)C2=O)cc(OC)c1`, with 4.73.
Same read-out and setting: then `CC(=O)Nc1ccc(S(=O)(=O)N2C/C(=C\c3ccc(C#N)cc3)C(=O)/C(=C/c3ccccc3F)C2)cc1`, with 4.84; and `O=C1/C(=C/c2cccc([N+](=O)[O-])c2)CN(S(=O)(=O)c2ccc(F)cc2)C/C1=C\c1cccc([N+](=O)[O-])c1`, with 4.81.
In the case of `COc1cc(/C=C2\CN(S(=O)(=O)c3ccc(F)cc3)C/C(=C\c3cc(OC)c(OC)c(OC)c3)C2=O)cc(OC)c1OC`, the pIC50 was 4.92.
`COc1cc(/C=C2\CN(S(=O)(=O)c3ccc(NC(C)=O)cc3)C/C(=C\c3ccccc3F)C2=O)cc(OC)c1OC`: the pIC50 was 4.85.
As for `COc1cc(/C=C2\CN(S(=O)(=O)c3ccc(NC(C)=O)cc3)C/C(=C\c3cccc([N+](=O)[O-])c3)C2=O)cc(OC)c1OC`, the negative logarithm of the IC50 (pIC50) was 4.81.
With `COc1cc(/C=C2\CN(S(=O)(=O)c3ccc(NC(C)=O)cc3)C/C(=C\c3cc(OC)c(OC)c(OC)c3)C2=O)cc(OC)c1`, the negative logarithm of the IC50 (pIC50) is 4.80.

System in the next data set: not listed separately
Kind of data set: Cytotoxicity against mouse RAW264.7 cells assessed as cell viability at 10 uM after 24 hrs by MTT assay relative to control. Type of data set: cell-based. The settings on record: read-out: Activity.
For `CC(=O)Nc1ccc(S(=O)(=O)N2C/C(=C\c3ccc(C#N)cc3)C(=O)/C(=C/c3ccc(C#N)cc3)C2)cc1`, the viability at 24 h, 10 µM was greater than 80%.
In the case of `CC(=O)Nc1ccc(S(=O)(=O)N2C/C(=C\c3ccccc3F)C(=O)/C(=C/c3ccccc3F)C2)cc1`, the viability at 24 h, 10 µM was greater than 80%.
For `COc1cc(/C=C2\CN(S(=O)(=O)c3ccc(F)cc3)C/C(=C\c3ccccc3F)C2=O)cc(OC)c1`, the viability at 24 h, 10 µM was greater than 80%.
For the molecule `COc1cc(/C=C2\CN(S(=O)(=O)c3ccc(NC(C)=O)cc3)C/C(=C\c3cc(OC)cc(OC)c3)C2=O)cc(OC)c1`, the viability at 24 h, 10 µM is greater than 80%.
With `CC(=O)Nc1ccc(S(=O)(=O)N2C/C(=C\c3ccc(C#N)cc3)C(=O)/C(=C/c3ccccc3F)C2)cc1`, the viability at 24 h, 10 µM was greater than 80%.
As to `O=C1/C(=C/c2cccc([N+](=O)[O-])c2)CN(S(=O)(=O)c2ccc(F)cc2)C/C1=C\c1cccc([N+](=O)[O-])c1`, the viability at 24 h, 10 µM is greater than 80%.
For the molecule `COc1cc(/C=C2\CN(S(=O)(=O)c3ccc(F)cc3)C/C(=C\c3cc(OC)c(OC)c(OC)c3)C2=O)cc(OC)c1OC`, the viability at 24 h, 10 µM was greater than 80%.
Consider `COc1cc(/C=C2\CN(S(=O)(=O)c3ccc(NC(C)=O)cc3)C/C(=C\c3ccccc3F)C2=O)cc(OC)c1OC`, for which the viability at 24 h, 10 µM was greater than 80%.
In the case of `COc1cc(/C=C2\CN(S(=O)(=O)c3ccc(NC(C)=O)cc3)C/C(=C\c3cccc([N+](=O)[O-])c3)C2=O)cc(OC)c1OC`, the viability at 24 h, 10 µM was greater than 80%.
With `COc1cc(/C=C2\CN(S(=O)(=O)c3ccc(NC(C)=O)cc3)C/C(=C\c3cc(OC)c(OC)c(OC)c3)C2=O)cc(OC)c1`, the viability at 24 h, 10 µM is greater than 80%.
